Earlier results, collected in paper PMC9501525, “Conjugation of a Cationic Cell-Penetrating Peptide with a Novel Kunitzin-like Trypsin Inhibitor: New Insights for Enhancement of Peptide Bioactivities” (Pharmaceutics, 2022).

Tests used:
E. coli (ATCC 8739) = details: ref [26]; cited from earlier work
From the text: (§1) Table 3 MIC/MBC of kunitzin-OV2 and its relatives against different microorganisms. | column: TAT ^a

MRSA (NCTC 12493) = details: ref [26]; cited from earlier work
From the text: as §1

[1] = tested on: P. aeruginosa (ATCC 9027); details: ref [26]; cited from earlier work
From the text: as §1

S. aureus (ATCC 6538) = details: ref [26]; cited from earlier work
From the text: as §1

C. albicans (ATCC 10231) = details: ref [26]; cited from earlier work
From the text: as §1

E. coli = tested on: E. coli; parameters: method as in PMID 28943153; details: ref [41]; cited from earlier work

Row | Substance | MBC (E. coli (ATCC 8739)) [µM] | MIC (E. coli (ATCC 8739)) [µM] | MBC (MRSA (NCTC 12493)) [µM] | MIC (MRSA (NCTC 12493)) [µM] | MBC [1] [µM] | MIC [1] [µM] | MBC (S. aureus (ATCC 6538)) [µM] | MIC (S. aureus (ATCC 6538)) [µM] | MBC (C. albicans (ATCC 10231)) [µM] | MIC (C. albicans (ATCC 10231)) [µM] | MBC (E. coli) [µg/mL] | MIC (E. coli) [µg/mL]
1 | RKKRRQRRR [TAT, classical short cationic cell-penetrating peptide TAT48–56] | >128 | >128 | >128 | >128 | >128 | >128 | >128 | >128 | >128 | >128 |  | 
2 | melittin: typical AMP, literature comparator, ref |  |  |  |  |  |  |  |  |  |  | 64 to 128 | 40 to 42.5
